From PubChem BioAssay AID1963854 (Molecular Pharmacology Branch, DTP, NCI, 2024)
pIC50: −log10 of the molar value.

System: 186277-243-T-J2-PDC complex spheroid viability
Assay: Anticancer human tumor 186277-243-T-J2-PDC patient-derived colon adenocarcinoma cell line growth inhibition [POLQ]
Details: for pIC50: curve of first compound; for viability, T/C: stronger effect = lower value; active = viability on the fitted dose curve at most 10% of control; inactive = the rest
How it was run: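 Three-cell-type spheroids modelling solid tumor plus stroma served as the readout system; POL inhibitors were tested individually and in combination, concentration ranges set by clinical Cmax where known.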

[1] = second compound 0.0316 µM, first compound 0.0316 µM
[2] = second compound 0.0316 µM, first compound 0.1 µM
[3] = second compound 0.0316 µM, first compound 0.316 µM
[4] = second compound 0.0316 µM, first compound 1 µM
[5] = second compound 0.0316 µM, first compound 3.16 µM
[6] = second compound 0.0316 µM, first compound 10 µM
[7] = second compound 0.1 µM, first compound 0.0316 µM
[8] = second compound 0.1 µM, first compound 0.1 µM
[9] = second compound 0.1 µM, first compound 0.316 µM
[10] = second compound 0.1 µM, first compound 1 µM
[11] = second compound 0.1 µM, first compound 3.16 µM
[12] = second compound 0.1 µM, first compound 10 µM
[13] = second compound 0.316 µM, first compound 0.0316 µM
[14] = second compound 0.316 µM, first compound 0.1 µM
[15] = second compound 0.316 µM, first compound 0.316 µM
[16] = second compound 0.316 µM, first compound 1 µM
[17] = second compound 0.316 µM, first compound 3.16 µM
[18] = second compound 0.316 µM, first compound 10 µM
[19] = second compound 1 µM, first compound 0.0316 µM
[20] = second compound 1 µM, first compound 0.1 µM
[21] = second compound 1 µM, first compound 0.316 µM
[22] = second compound 1 µM, first compound 1 µM
[23] = second compound 1 µM, first compound 3.16 µM
[24] = second compound 1 µM, first compound 10 µM
[25] = second compound 3.16 µM, first compound 0.0316 µM
[26] = second compound 3.16 µM, first compound 0.1 µM
[27] = second compound 3.16 µM, first compound 0.316 µM
[28] = second compound 3.16 µM, first compound 1 µM
[29] = second compound 3.16 µM, first compound 3.16 µM
[30] = second compound 3.16 µM, first compound 10 µM
[31] = second compound 10 µM, first compound 0.0316 µM
[32] = second compound 10 µM, first compound 0.1 µM
[33] = second compound 10 µM, first compound 0.316 µM
[34] = second compound 10 µM, first compound 1 µM
[35] = second compound 10 µM, first compound 3.16 µM
[36] = second compound 10 µM, first compound 10 µM
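Note: spheroids exposed to compounds for seven days.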
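Throughout, for viability, T/C: 100% = DMSO vehicle control viability.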

Nc1ccn(C2OC(CO)C(O)C2(F)F)c(=O)n1 (stereo not drawn) + COC1C(OC(N)=O)C(O)C(Oc2ccc3c(O)c(NC(=O)c4ccc(O)c(CC=C(C)C)c4)c(=O)oc3c2C)OC1(C)C
> 7.50: pIC50 (second compound 0.0316 µM) | pIC50 (second compound 0.1 µM) | pIC50 (second compound 0.316 µM) | pIC50 (second compound 1 µM) | pIC50 (second compound 3.16 µM) | pIC50 (second compound 10 µM)
active: viability, T/C [1] 7.44% | viability, T/C [2] 5.74% | viability, T/C [3] 6.22% | viability, T/C [4] 6.52% | viability, T/C [5] 5.93% | viability, T/C [6] 5.3% | viability, T/C [7] 7.07% | viability, T/C [8] 5.49% | viability, T/C [9] 6.25% | viability, T/C [10] 6.16% | viability, T/C [11] 7.16% | viability, T/C [12] 5.7% | viability, T/C [13] 6.61% | viability, T/C [14] 5.95% | viability, T/C [15] 6.28% | viability, T/C [16] 6.18% | viability, T/C [17] 6.62% | viability, T/C [18] 5.63% | viability, T/C [19] 6.65% | viability, T/C [20] 5.29% | viability, T/C [21] 5.98% | viability, T/C [22] 6.8% | viability, T/C [23] 6.08% | viability, T/C [24] 5.74% | viability, T/C [25] 5.98% | viability, T/C [26] 5.52% | viability, T/C [27] 5.91% | viability, T/C [28] 5.81% | viability, T/C [29] 7.8% | viability, T/C [30] 5.79% | viability, T/C [31] 6.27% | viability, T/C [32] 5.86% | viability, T/C [33] 6.51% | viability, T/C [34] 6.65% | viability, T/C [35] 7.8% | viability, T/C [36] 5.54%

Nc1ccn(C2OC(CO)C(O)C2(F)F)c(=O)n1 (stereo not drawn) + Cc1cccc(N(C)C(=O)C2C(O)CCN2c2nc(C)cc(C(F)(F)F)c2C#N)c1
active: viability, T/C [1] 7.07% | viability, T/C [2] 6.17% | viability, T/C [3] 6.28% | viability, T/C [4] 7.91% | viability, T/C [5] 7.05% | viability, T/C [6] 6.44% | viability, T/C [7] 7.12% | viability, T/C [8] 6.99% | viability, T/C [9] 7.56% | viability, T/C [10] 8.01% | viability, T/C [11] 7.17% | viability, T/C [12] 6.37% | viability, T/C [13] 7.95% | viability, T/C [14] 7.37% | viability, T/C [15] 7% | viability, T/C [16] 7.74% | viability, T/C [17] 7.97% | viability, T/C [18] 5.75% | viability, T/C [19] 8.61% | viability, T/C [20] 6.36% | viability, T/C [21] 7.13% | viability, T/C [22] 7.45% | viability, T/C [23] 8.07% | viability, T/C [24] 6.24% | viability, T/C [25] 6.68% | viability, T/C [26] 6.49% | viability, T/C [27] 6.57% | viability, T/C [28] 7.84% | viability, T/C [29] 7.96% | viability, T/C [30] 6.36% | viability, T/C [31] 6.88% | viability, T/C [32] 5.82% | viability, T/C [33] 5.86% | viability, T/C [34] 6.97% | viability, T/C [35] 6.86% | viability, T/C [36] 5.93%
> 7.50: pIC50 (second compound 0.0316 µM) | pIC50 (second compound 0.1 µM) | pIC50 (second compound 0.316 µM) | pIC50 (second compound 1 µM) | pIC50 (second compound 3.16 µM) | pIC50 (second compound 10 µM)

C=CC(=O)N1CCN(c2nc(=O)n(-c3c(C)ccnc3C(C)C)c3nc(-c4c(O)cccc4F)c(F)cc23)C(C)C1 (stereo not drawn) + COC1C(OC(N)=O)C(O)C(Oc2ccc3c(O)c(NC(=O)c4ccc(O)c(CC=C(C)C)c4)c(=O)oc3c2C)OC1(C)C
< 5.00: pIC50 (second compound 0.0316 µM) | pIC50 (second compound 0.1 µM) | pIC50 (second compound 0.316 µM) | pIC50 (second compound 1 µM) | pIC50 (second compound 3.16 µM) | pIC50 (second compound 10 µM)
inactive: viability, T/C [1] 94% | viability, T/C [2] 88.7% | viability, T/C [3] 111% | viability, T/C [4] 88.2% | viability, T/C [5] 102% | viability, T/C [6] 85.9% | viability, T/C [7] 90.2% | viability, T/C [8] 91.8% | viability, T/C [9] 98.3% | viability, T/C [10] 90.2% | viability, T/C [11] 87% | viability, T/C [12] 97% | viability, T/C [13] 98% | viability, T/C [14] 102% | viability, T/C [15] 91.5% | viability, T/C [16] 104% | viability, T/C [17] 110% | viability, T/C [18] 98.1% | viability, T/C [19] 97.3% | viability, T/C [20] 93.9% | viability, T/C [21] 101% | viability, T/C [22] 90.7% | viability, T/C [23] 96.6% | viability, T/C [24] 97.7% | viability, T/C [25] 93.5% | viability, T/C [26] 94.5% | viability, T/C [27] 99.3% | viability, T/C [28] 101% | viability, T/C [29] 87.5% | viability, T/C [30] 87.3% | viability, T/C [31] 92.9% | viability, T/C [32] 104% | viability, T/C [33] 92.3% | viability, T/C [34] 84.5% | viability, T/C [35] 116% | viability, T/C [36] 83.3%

COc1cc(C2c3cc4c(cc3C(OC3OC5COC(C)OC5C(O)C3O)C3COC(=O)C23)OCO4)cc(OC)c1O (stereo not drawn) + Cc1cccc(N(C)C(=O)C2C(O)CCN2c2nc(C)cc(C(F)(F)F)c2C#N)c1
5.97: pIC50 (second compound 0.316 µM)
inactive: viability, T/C [1] 102% | viability, T/C [2] 104% | viability, T/C [3] 79.3% | viability, T/C [4] 48.8% | viability, T/C [5] 30.6% | viability, T/C [6] 14.3% | viability, T/C [7] 106% | viability, T/C [8] 117% | viability, T/C [9] 76% | viability, T/C [10] 47.5% | viability, T/C [11] 29.2% | viability, T/C [12] 14.4% | viability, T/C [13] 105% | viability, T/C [14] 99.2% | viability, T/C [15] 80.5% | viability, T/C [16] 48.4% | viability, T/C [17] 31.7% | viability, T/C [18] 14.5% | viability, T/C [19] 93.8% | viability, T/C [20] 115% | viability, T/C [21] 80.7% | viability, T/C [22] 46% | viability, T/C [23] 36.1% | viability, T/C [24] 12.7% | viability, T/C [25] 105% | viability, T/C [26] 124% | viability, T/C [27] 66.7% | viability, T/C [28] 46.6% | viability, T/C [29] 27.2% | viability, T/C [30] 13.4% | viability, T/C [31] 99.6% | viability, T/C [32] 106% | viability, T/C [33] 57.2% | viability, T/C [34] 37.6% | viability, T/C [35] 23.3% | viability, T/C [36] 12.2%
6.05: pIC50 (second compound 0.1 µM)
6.13: pIC50 (second compound 3.16 µM)
6.28: pIC50 (second compound 10 µM)
5.99: pIC50 (second compound 0.0316 µM)
6.01: pIC50 (second compound 1 µM)
